# Target: T1, human V1a receptor (Homo sapiens, UniProt P37288)
# T1 construct: expressed in transfected cells; host or cells: HEK293 cells, transiently transfected; membranes prepared
# Test: human V1a receptor binding (3H-Vasopressin SPA, HEK293 membranes)
# Conditions: 3H-Vasopressin displacement, membranes of HEK293 cells transiently transfected with human V1a; Ki by Cheng-Prussoff
# Experimental: The human V1a receptor was cloned by RT-PCR from total human liver RNA. The coding sequence was subcloned in an expression vector after sequencing to confirm the identity of the amplified sequence. […] Cell membranes were prepared from HEK293 cells transiently transfected with the expression vector and grown in 20 liter fermenters with the following protocol.
# 50 g of cells are resuspended in 30 ml freshly prepared ice cold Lysis buffer (50 mM HEPES, 1 mM EDTA, 10 mM MgCl2 adjusted to pH=7.4+complete cocktail of protease inhibitor (Roche Diagnostics)). Homogenized with Polytron for 1 min and sonicated on ice for 2×2 minutes at 80% intensity (Vibracell sonicator). The preparation is centrifuged 20 min at 500 g at 4° C., the pellet is discarded and the supernatant centrifuged 1 hour at 43'000 g at 4° C. (19'000 rpm). The pellet is resuspended in 12.5 ml Lysis buffer+12.5 ml Sucrose 20% and homogenized using a Polytron for 1-2 min. The protein concentration is determined by the Bradford method and aliquots are stored at −80° C. until use. For binding studies 60 mg Yttrium silicate SPA beads (Amersham) are mixed with an aliquot of membrane in binding buffer (50 mM Tris, 120 mM NaCl, 5 mM KCl, 2 mM CaCl2, 10 mM MgCl2) for 15 minutes with mixing. 50 ul of bead/membrane mixture is then added to each well of a 96 well plate, followed by 50 ul of 4 nM 3H-Vasopressin (American Radiolabeled Chemicals). For total binding measurement 100 ul of binding buffer are added to the respective wells, for non-specific binding 100 ul of […] cold vasopressin and for compound testing 100 ul of a serial dilution of each compound in 2% DMSO. The plate is incubated 1 h at room temperature, centrifuged 1 min at 1000 g and counted on a Packard Top-Count. Non-specific binding counts are subtracted from each well and data is normalized to the maximum specific binding set at 100%. To calculate an IC 50 the curve is fitted using a non-linear regression model (XLfit) and the Ki is calculated using the Cheng-Prussoff equation.
# T1 sequence (P37288 whole entry): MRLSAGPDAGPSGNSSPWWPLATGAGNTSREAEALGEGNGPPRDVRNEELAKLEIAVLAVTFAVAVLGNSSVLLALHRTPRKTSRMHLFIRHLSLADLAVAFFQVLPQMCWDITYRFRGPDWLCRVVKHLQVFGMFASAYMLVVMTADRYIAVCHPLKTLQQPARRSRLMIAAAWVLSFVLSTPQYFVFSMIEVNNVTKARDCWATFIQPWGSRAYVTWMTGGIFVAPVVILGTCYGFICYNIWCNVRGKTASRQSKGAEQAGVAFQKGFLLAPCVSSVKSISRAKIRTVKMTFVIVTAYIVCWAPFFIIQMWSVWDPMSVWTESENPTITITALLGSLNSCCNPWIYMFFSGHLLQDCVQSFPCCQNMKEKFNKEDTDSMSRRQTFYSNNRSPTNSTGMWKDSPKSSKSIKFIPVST
row,Structure (SMILES),Ki [nM]
1,"O=C1Nc2ccccc2C2(CCN(C(=O)c3c[nH]c4cc(Cl)ccc34)CC2)O1 [Example 1, 1′-[(6-Chloro-1H-indol-3-yl)carbonyl]spiro[3,1-benzoxazine-4,4′-piperidin]-2(1H)-one]",32
2,"O=C1CC2(CCN(C(=O)c3c[nH]c4ccccc34)CC2)c2cc(Br)ccc2N1 [Example 2, 6′-Bromo-1-(1H-indol-3-ylcarbonyl)-1′H-spiro[piperidine-4,4′-quinolin]-2′(3′H)-one]",2050
3,"CN(C)CCN1C(=O)OC2(CCN(C(=O)c3c[nH]c4cc(Cl)ccc34)CC2)c2cc(Cl)ccc21 [Example 3, 6-Chloro-1′-[(6-chloro-1H-indol-3-yl)carbonyl]-1-[2-(dimethylamino)ethyl]spiro[3,1-benzoxazine-4,4′-piperidin]-2(1H)-one]",402
4,"O=C1Nc2ccc(Cl)cc2C2(CCN(C(=O)c3c[nH]c4cc(Cl)ccc34)CC2)O1 [Example 4, 6-Chloro-1′-[(6-chloro-1H-indol-3-yl)carbonyl]spiro[3,1-benzoxazine-4,4′-piperidin]-2(1H)-one]",310
5,"O=C1Nc2ccccc2C2(CCN(C(=O)c3cn(-c4cc(F)cc(F)c4)c4cc(Cl)ccc34)CC2)O1 [Example 5, 1′-{[6-Chloro-1-(3,5-difluorophenyl)-1H-indol-3-yl]carbonyl}spiro[3,1-benzoxazine-4,4′-piperidin]-2(1H)-one]",130
6,"O=C1Nc2ccccc2C2(CCN(C(=O)c3cn(C(=O)c4cccc(F)c4)c4cc(Cl)ccc34)CC2)O1 [Example 6, 1′-{[6-Chloro-1-(3-fluorobenzoyl)-1H-indol-3-yl]carbonyl}spiro[3,1-benzoxazine-4,4′-piperidin]-2(1H)-one]",118
7,"O=C1Nc2ccccc2C2(CCN(C(=O)c3cn(C(=O)c4ccccc4F)c4cc(Cl)ccc34)CC2)O1 [Example 7, 1′-{[6-Chloro-1-(2-fluorobenzoyl)-1H-indol-3-yl]carbonyl}spiro[3,1-benzoxazine-4,4′-piperidin]-2(1H)-one]",117
8,"O=C1Nc2ccccc2C2(CCN(C(=O)c3cn(C(=O)c4cccc(F)c4F)c4cc(Cl)ccc34)CC2)O1 [Example 8, 1′-{[6-Chloro-1-(2,3-difluorobenzoyl)-1H-indol-3-yl]carbonyl}spiro[3,1-benzoxazine-4,4′-piperidin]-2(1H)-one]",136
9,"O=C1Nc2ccccc2C2(CCN(C(=O)c3cn(Cc4cc(F)cc(F)c4)c4cc(Cl)ccc34)CC2)O1 [Example 10, 1′-{[6-Chloro-1-(3,5-difluorobenzyl)-1H-indol-3-yl]carbonyl}spiro[3,1-benzoxazine-4,4′-piperidin]-2(1H)-one]",3
10,"O=C1Nc2ccccc2C2(CCN(C(=O)c3cn(Cc4cccc(F)c4)c4cc(Cl)ccc34)CC2)O1 [Example 11, 1′-{[6-Chloro-1-(3-fluorobenzyl)-1H-indol-3-yl]carbonyl}spiro[3,1-benzoxazine-4,4′-piperidin]-2(1H)-one]",5
11,"O=C1Nc2ccccc2C2(CCN(C(=O)c3cn(CC(=O)c4cccc(F)c4)c4cc(Cl)ccc34)CC2)O1 [Example 12, 1′-({6-Chloro-1-[2-(3-fluorophenyl)-2-oxoethyl]-1H-indol-3-yl}carbonyl)spiro[3,1-benzoxazine-4,4′-piperidin]-2(1H)-one]",7
12,"O=C1Nc2ccccc2C2(CCN(C(=O)c3cn(CC(=O)c4ccc(F)c(F)c4)c4cc(Cl)ccc34)CC2)O1 [Example 13, 1′-({6-Chloro-1-[2-(3,4-difluorophenyl)-2-oxoethyl]-1H-indol-3-yl}carbonyl)spiro[3,1-benzoxazine-4,4′-piperidin]-2(1H)-one]",8
13,"O=C1Nc2ccccc2C2(CCN(C(=O)c3cn(CC(=O)N4CCCCC4)c4cc(Cl)ccc34)CC2)O1 [Example 15, 1′-{[6-Chloro-1-(2-oxo-2-piperidin-1-ylethyl)-1H-indol-3-yl]carbonyl}spiro[3,1-benzoxazine-4,4′-piperidin]-2(1H)-one]",7
14,"O=C1Nc2ccccc2C2(CCN(C(=O)c3cn(CC(=O)N4CCOCC4)c4cc(Cl)ccc34)CC2)O1 [Example 16, 1′-{[6-Chloro-1-(2-morpholin-4-yl-2-oxoethyl)-1H-indol-3-yl]carbonyl}spiro[3,1-benzoxazine-4,4′-piperidin]-2(1H)-one]",20
15,"CNC(=O)Cn1cc(C(=O)N2CCC3(CC2)CNC(=O)c2ccccc23)c2ccc(Cl)cc21 [Example 28, 2-{6-chloro-3-[(1-oxo-2,3-dihydro-1H, 1′H-spiro[isoquinoline-4,4′-piperidin]-1′-yl)carbonyl]-1H-indol-1-yl}-N-methylacetamide]",166

# More lines, now with the values ahead:
row,Ki [nM],Structure (SMILES)
1,5.7,"CN(C)C(=O)Cn1cc(C(=O)N2CCC3(CC2)OC(=O)Nc2ccccc23)c2ccc(Cl)cc21 [Example 17, 2-{6-Chloro-3-[(2-oxo-1,2-dihydro-1′H-spiro[3,1-benzoxazine-4,4′-piperidin]-1′-yl)carbonyl]-1H-indol-1-yl}-N,N-dimethylacetamide]"
2,6,"CCN(CC)C(=O)Cn1cc(C(=O)N2CCC3(CC2)OC(=O)Nc2ccccc23)c2ccc(Cl)cc21 [Example 18, 2-{6-Chloro-3-[(2-oxo-1,2-dihydro-1H-spiro[3,1-benzoxazine-4,4′-piperidin]-1′-yl)carbonyl]-1H-indol-1-yl}-N,N-diethylacetamide]"
3,46,"O=C1Nc2ccccc2C2(CCN(C(=O)c3cn(C(=O)N4CCCCC4)c4cc(Cl)ccc34)CC2)O1 [Example 19, 1′-{[6-Chloro-1-(piperidin-1-ylcarbonyl)-1H-indol-3-yl]carbonyl}spiro[3,1-benzoxazine-4,4′-piperidin]-2(1H)-one]"
4,10,"CC(C)(C)OC(=O)Cn1cc(C(=O)N2CCC3(CC2)OC(=O)Nc2ccccc23)c2ccc(Cl)cc21 [Example 20, tert-Butyl {6-chloro-3-[(2-oxo-1,2-dihydro-1′H-spiro[3,1-benzoxazine-4,4′-piperidin]-1′-yl)carbonyl]-1H-indol-1-yl}acetate]"
5,88,"O=C1Nc2ccccc2C2(CCN(C(=O)c3cn(C(=O)c4cc(F)cc(F)c4)c4cc(Cl)ccc34)CC2)O1 [Example 21, 1′-{[6-Chloro-1-(3,5-difluorobenzoyl)-1H-indol-3-yl]carbonyl}spiro[3,1-benzoxazine-4,4′-piperidin]-2(1H)-one]"
6,200,"O=C1Nc2ccccc2C2(CCN(C(=O)c3cn(CC(=O)c4cc(F)cc(F)c4)c4cc(Cl)ccc34)CC2)O1 [Example 22, 1′-({6-Chloro-1-[2-(3,5-difluorophenyl)-2-oxoethyl]-1H-indol-3-yl}carbonyl)spiro[3,1-benzoxazine-4,4′-piperidin]-2(1H)-one]"
7,2,"O=C1Nc2ccccc2C2(CCN(C(=O)c3cn(CC(=O)c4ccccc4F)c4cc(Cl)ccc34)CC2)O1 [Example 23, 1′-({6-Chloro-1-[2-(2-fluorophenyl)-2-oxoethyl]-1H-indol-3-yl}carbonyl)spiro[3,1-benzoxazine-4,4′-piperidin]-2(1H)-one]"
8,10,"N#CCCn1cc(C(=O)N2CCC3(CC2)OC(=O)Nc2ccccc23)c2ccc(Cl)cc21 [Example 24, 3-{6-Chloro-3-[(2-oxo-1,2-dihydro-1′H-spiro[3,1-benzoxazine-4,4′-piperidin]-1′-yl)carbonyl]-1H-indol-1-yl}propanenitrile]"
9,28,"CC(C#N)n1cc(C(=O)N2CCC3(CC2)OC(=O)Nc2ccccc23)c2ccc(Cl)cc21 (centres unmarked) [Example 25, 2-{6-Chloro-3-[(2-oxo-1,2-dihydro-1′H-spiro[3,1-benzoxazine-4,4′-piperidin]-1′-yl)carbonyl]-1H-indol-1-yl}propanenitrile]"
10,8,"O=C1Nc2ccccc2C2(CCN(C(=O)c3cn(CC(=O)c4ccccn4)c4cc(Cl)ccc34)CC2)O1 [Example 26, 1′-{[6-Chloro-1-(2-oxo-2-pyridin-2-ylethyl)-1H-indol-3-yl]carbonyl}spiro[3,1-benzoxazine-4,4′-piperidin]-2(1H)-one]"
11,29,"Cc1oc(-c2ccccc2)nc1C(=O)Cn1cc(C(=O)N2CCC3(CC2)OC(=O)Nc2ccccc23)c2ccc(Cl)cc21 [Example 27, 1′-({6-Chloro-1-[2-(5-methyl-2-phenyl-1,3-oxazol-4-yl)-2-oxoethyl]-1H-indol-3-yl}carbonyl)spiro[3,1-benzoxazine-4,4′-piperidin]-2(1H)-one]"
